These are literature values, as cited in PMC11089247 (Frontiers in Pharmacology, 2024).

In one data set the test system is CYP2C9. On the set-up: method as in Ji et al., 2015. As to conditions: substrate fluoxetine, ref Ji et al., 2015.
A further data set concerns CYP2C19. As to conditions: substrate fluoxetine, ref Fang et al., 2017.

Counter-ions that a name gives are not always drawn.

What is called Km is the concentration of substrate that gives half-maximal velocity. On to `CNCCC(Oc1ccc(C(F)(F)F)cc1)c1ccccc1` (centres unmarked) [fluoxetine, Fluoxetine hydrochloride], for which the Km in the data set on CYP2C9 was 31.7 µM; in the data set on CYP2C19 it was 97.6 µM.
